In patent US10160755B2 (Plexxikon Inc., priority 2015, dated 2018) one finds IC50 data, which are given here for 22 compounds.

One experiment has as its target T1, FLT3-D835Y (Homo sapiens, UniProt P36888, D835Y).
T1 construct: purchased Invitrogen PV3967
T1 sequence (P36888 27-993 D835Y): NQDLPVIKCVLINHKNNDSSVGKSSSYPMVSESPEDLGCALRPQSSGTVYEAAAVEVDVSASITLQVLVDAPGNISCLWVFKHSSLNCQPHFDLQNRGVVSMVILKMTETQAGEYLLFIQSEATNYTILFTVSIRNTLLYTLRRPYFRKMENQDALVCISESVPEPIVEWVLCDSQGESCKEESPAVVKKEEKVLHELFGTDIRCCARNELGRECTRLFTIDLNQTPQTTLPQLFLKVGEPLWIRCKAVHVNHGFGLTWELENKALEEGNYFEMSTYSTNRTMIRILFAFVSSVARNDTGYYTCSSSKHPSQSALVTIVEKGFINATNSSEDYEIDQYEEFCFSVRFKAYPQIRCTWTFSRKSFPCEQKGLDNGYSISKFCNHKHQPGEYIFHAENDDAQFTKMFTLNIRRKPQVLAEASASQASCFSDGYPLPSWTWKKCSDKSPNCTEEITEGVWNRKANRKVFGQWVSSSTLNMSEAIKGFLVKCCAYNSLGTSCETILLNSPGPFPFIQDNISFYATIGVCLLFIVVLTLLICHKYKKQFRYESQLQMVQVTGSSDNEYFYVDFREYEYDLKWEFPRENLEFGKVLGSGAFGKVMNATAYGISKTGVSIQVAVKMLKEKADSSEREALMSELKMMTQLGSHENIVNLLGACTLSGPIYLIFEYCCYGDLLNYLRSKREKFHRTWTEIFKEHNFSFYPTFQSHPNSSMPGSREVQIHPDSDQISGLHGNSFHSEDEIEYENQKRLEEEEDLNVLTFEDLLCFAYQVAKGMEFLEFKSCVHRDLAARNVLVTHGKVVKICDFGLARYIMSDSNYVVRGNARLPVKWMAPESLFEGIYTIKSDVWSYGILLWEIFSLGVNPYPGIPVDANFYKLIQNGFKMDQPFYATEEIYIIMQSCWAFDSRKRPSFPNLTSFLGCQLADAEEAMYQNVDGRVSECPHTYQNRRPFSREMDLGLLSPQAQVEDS
The experiment can be described thus: FLT3-D835Y biochemical kinase assay (AlphaScreen). An outline of the steps:
(§1)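 IC50 values reflect loss of AlphaScreen proximity signal (excitation 680 nm, emission 580 nm) from tyrosine phosphorylation of a biotinylated poly(Glu4-Tyr) substrate at 30 nM. ATP was 10 μM for the D835Y mutant and 100 μM for ITD. Detection used PY20 acceptor beads.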
A general note: In Alpha technology, singlet oxygen from a donor bead excites a nearby acceptor bead.

In a further experiment the target is T2, FLT3-ITD (Homo sapiens, UniProt P36888).
T2 construct: FLT3-ITD; Invitrogen #PV6190
T2 sequence (P36888 1-993): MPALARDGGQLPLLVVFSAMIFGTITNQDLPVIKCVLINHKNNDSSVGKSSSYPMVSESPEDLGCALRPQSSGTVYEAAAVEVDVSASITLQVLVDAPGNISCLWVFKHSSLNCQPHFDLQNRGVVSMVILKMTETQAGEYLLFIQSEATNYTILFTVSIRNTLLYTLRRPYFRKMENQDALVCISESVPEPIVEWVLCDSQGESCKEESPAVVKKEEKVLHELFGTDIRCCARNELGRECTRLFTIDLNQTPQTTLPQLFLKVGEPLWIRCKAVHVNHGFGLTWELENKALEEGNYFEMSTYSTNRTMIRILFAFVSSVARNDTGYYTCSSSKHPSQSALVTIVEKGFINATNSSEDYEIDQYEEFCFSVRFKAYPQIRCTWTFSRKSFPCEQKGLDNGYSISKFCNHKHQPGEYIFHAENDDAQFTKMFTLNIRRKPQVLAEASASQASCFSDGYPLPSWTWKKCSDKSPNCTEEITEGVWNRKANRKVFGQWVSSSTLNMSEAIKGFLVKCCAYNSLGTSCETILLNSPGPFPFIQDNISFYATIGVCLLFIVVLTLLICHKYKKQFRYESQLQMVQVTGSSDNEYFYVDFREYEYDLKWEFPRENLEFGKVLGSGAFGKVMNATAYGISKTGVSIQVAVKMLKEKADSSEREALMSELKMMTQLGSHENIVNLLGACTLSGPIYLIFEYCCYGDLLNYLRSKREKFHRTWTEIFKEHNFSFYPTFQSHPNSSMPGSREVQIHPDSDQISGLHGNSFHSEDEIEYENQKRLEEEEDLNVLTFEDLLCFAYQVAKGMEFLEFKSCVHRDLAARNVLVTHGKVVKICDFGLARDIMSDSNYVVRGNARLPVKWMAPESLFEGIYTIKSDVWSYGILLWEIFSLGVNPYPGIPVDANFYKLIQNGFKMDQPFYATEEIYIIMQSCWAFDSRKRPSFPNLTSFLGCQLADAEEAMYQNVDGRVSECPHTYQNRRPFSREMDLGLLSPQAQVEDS
Kind of experiment: FLT3-ITD biochemical kinase assay (AlphaScreen). An outline of the steps: as §1

The structures appear in SMILES notation.

A word on the IC50: it is the concentration that inhibits the measured activity by half. A high value points to weaker potency.

In the case of `COc1ncc(-c2cnc3[nH]cc(-c4ccc5ncn(C6CCCNC6)c5c4)c3n2)cn1` (centres unmarked) [P-264, 2-(2-methoxypyrimidin-5-yl)-7-[3-(3-piperidyl)benzimidazol-5-yl]-5H-pyrrolo[2,3-b]pyrazine], the IC50 against FLT3-D835Y and against FLT3-ITD was 0.0001 to 1 µM each time.
Take `O=S1(=O)CCCN1c1cccc(-c2cnc3[nH]cc(-c4ccc5ncn(C6CCCNC6)c5c4)c3n2)c1` (centres unmarked) [P-273, 2-[3-[7-[3-(3-piperidyl)benzimidazol-5-yl]-5H-pyrrolo[2,3-b]pyrazin-2-yl]phenyl]-1,2-thiazolidine 1,1-dioxide]: the IC50 against FLT3-D835Y and on FLT3-ITD was 0.0001 to 1 µM throughout.
Consider `COc1cc(C(=O)Nc2cnc3[nH]cc(-c4ccc5ncn(C6CCCNC6)c5c4)c3c2)ccn1` (centres unmarked) [P-247, 2-methoxy-N-[3-[3-(3-piperidyl)benzimidazol-5-yl]-1H-pyrrolo[2,3-b]pyridin-5-yl]pyridine-4-carboxamide], for which the IC50 on FLT3-D835Y and at FLT3-ITD was 0.0001 to 1 µM each time.
Take `N#Cc1cccc(NC(=O)c2cnc3[nH]cc(-c4ccc5ncn(C6CCCNC6)c5c4)c3c2)c1` (centres unmarked) [P-219, N-(3-cyanophenyl)-3-(1-(piperidin-3-yl)-1H-benzo[d]imidazol-6-yl)-1H-pyrrolo[2,3-b]pyridine-5-carboxamide]: the IC50 on FLT3-D835Y and at FLT3-ITD was 0.0001 to 1 µM in each case.
In the case of `N#Cc1cc(-c2cnc3[nH]cc(-c4ccc5ncn(C6CCCNC6)c5c4)c3n2)ccc1F` (centres unmarked) [P-238, 2-fluoro-5-[7-[3-(3-piperidyl)benzimidazol-5-yl]-5H-pyrrolo[2,3-b]pyrazin-2-yl]benzonitrile], the IC50 against FLT3-D835Y and against FLT3-ITD was 0.0001 to 1 µM throughout.
Regarding `CC(C)n1cnc2ccc(-c3c[nH]c4ncc(-c5cnn(C(F)F)c5)cc34)cc21` [P-267, 5-[1-(difluoromethyl)pyrazol-4-yl]-3-(3-isopropylbenzimidazol-5-yl)-1H-pyrrolo[2,3-b]pyridine], the IC50 on FLT3-D835Y and on FLT3-ITD was 0.0001 to 1 µM throughout.
Take `COc1cc(-c2cnc3[nH]cc(-c4ccc5ncn(C(C)C)c5c4)c3n2)ccn1` [P-113, 7-(3-isopropylbenzimidazol-5-yl)-2-(2-methoxy-4-pyridyl)-5H-pyrrolo[2,3-b]pyrazine]: the half-inhibitory concentration (IC50) at FLT3-D835Y and against FLT3-ITD was 0.0001 to 1 µM in each case.
In the case of `CC(C)(C)n1cnc2ccc(-c3c[nH]c4ncc(-c5cccc(N6CCOCC6)c5)nc34)cc21` [P-226, 4-[3-[7-(3-tert-butylbenzimidazol-5-yl)-5H-pyrrolo[2,3-b]pyrazin-2-yl]phenyl]morpholine], the IC50 against FLT3-D835Y and against FLT3-ITD was 0.0001 to 1 µM each time.
Take `COc1cc(-c2cnc3[nH]cc(-c4ccc5ncn(C6CCCNC6)c5c4)c3n2)cc(OC)n1` (centres unmarked) [P-195, 2-(2,6-dimethoxy-4-pyridyl)-7-[3-(3-piperidyl)benzimidazol-5-yl]-5H-pyrrolo[2,3-b]pyrazine]: the IC50 on FLT3-D835Y and at FLT3-ITD was 0.0001 to 1 µM in each case.
On to `O=S(=O)(c1cccc(-c2cnc3[nH]cc(-c4ccc5ncn(C6CCCNC6)c5c4)c3n2)c1)N1CCCC1` (centres unmarked) [P-237, 7-[3-(3-piperidyl)benzimidazol-5-yl]-2-(3-pyrrolidin-1-ylsulfonylphenyl)-5H-pyrrolo[2,3-b]pyrazine], for which the IC50 on FLT3-D835Y and at FLT3-ITD was 0.0001 to 1 µM throughout.
With `COc1cc(-c2cnc3[nH]cc(-c4ccc5ncn(C(C)(C)C)c5c4)c3n2)ccn1` [P-099, 7-(3-tert-butylbenzimidazol-5-yl)-2-(2-methoxy-4-pyridyl)-5H-pyrrolo[2,3-b]pyrazine], the IC50 against FLT3-D835Y and on FLT3-ITD was 0.0001 to 1 µM each time.
`CC(C)(C)n1cnc2ccc(-c3c[nH]c4ncc(-c5cnc(N6CCOCC6)nc5)cc34)cc21` [P-266, 4-[5-[3-(3-tert-butylbenzimidazol-5-yl)-1H-pyrrolo[2,3-b]pyridin-5-yl]pyrimidin-2-yl]morpholine]: the IC50 against FLT3-D835Y and against FLT3-ITD was 0.0001 to 1 µM in each case.
`COc1cnc2[nH]cc(-c3ccc4ncn(-c5cccc(C#N)c5)c4c3)c2c1` [P-135, 3-[6-(5-methoxy-1H-pyrrolo[2,3-b]pyridin-3-yl)benzimidazol-1-yl]benzonitrile]: the IC50 at FLT3-D835Y and on FLT3-ITD was 0.0001 to 1 µM each time.
`COc1cc(C#Cc2cnc3[nH]cc(-c4ccc5ncn(C6CCCNC6)c5c4)c3c2)ccn1` (centres unmarked) [P-241, 5-[2-(2-methoxy-4-pyridyl)ethynyl]-3-[3-(3-piperidyl)benzimidazol-5-yl]-1H-pyrrolo[2,3-b]pyridine]: the IC50 on FLT3-D835Y and on FLT3-ITD was 0.0001 to 1 µM in each case.
For `c1cc(-c2cnc3[nH]cc(-c4ccc5ncn(C6CCCNC6)c5c4)c3c2)cc(N2CCOCC2)n1` (centres unmarked) [P-223, 4-[4-[3-[3-(3-piperidyl)benzimidazol-5-yl]-1H-pyrrolo[2,3-b]pyridin-5-yl]-2-pyridyl]morpholine], the IC50 on FLT3-D835Y and at FLT3-ITD was 0.0001 to 1 µM each time.
Turning to `COc1cnc2[nH]cc(-c3ccc4ncn(-c5ccc(F)c(C)c5)c4c3)c2c1` [P-129, 1-(4-fluoro-3-methyl-phenyl)-6-(5-methoxy-1H-pyrrolo[2,3-b]pyridin-3-yl)benzimidazole], the IC50 against FLT3-D835Y and against FLT3-ITD was 0.0001 to 1 µM in each case.
With `COc1cnc2[nH]cc(-c3ccc4ncn(-c5cccc(Cl)c5)c4c3)c2c1` [P-105, 1-(3-chlorophenyl)-6-(5-methoxy-1H-pyrrolo[2,3-b]pyridin-3-yl)benzimidazole], the IC50 against FLT3-D835Y and against FLT3-ITD was 0.0001 to 1 µM each time.
Take `CC(C)(C)n1cnc2ccc(-c3c[nH]c4ncc(-c5cnn(C(F)F)c5)cc34)cc21` [P-251, 1-tert-butyl-6-[5-[1-(difluoromethyl)pyrazol-4-yl]-1H-pyrrolo[2,3-b]pyridin-3-yl]benzimidazole]: the IC50 at FLT3-D835Y and at FLT3-ITD was 0.0001 to 1 µM in each case.
Turning to `CCCS(=O)(=O)Nc1cccc(-c2cnc3[nH]cc(-c4ccc5ncn(C(C)(C)C)c5c4)c3n2)c1` [P-225, N-[3-[7-(3-tert-butylbenzimidazol-5-yl)-5H-pyrrolo[2,3-b]pyrazin-2-yl]phenyl]propane-1-sulfonamide], the IC50 against FLT3-D835Y and against FLT3-ITD was 0.0001 to 1 µM throughout.
On to `COc1ncc(-c2cnc3[nH]cc(-c4ccc5ncn(C(C)C)c5c4)c3c2)cn1` [P-269, 1-isopropyl-6-[5-(2-methoxypyrimidin-5-yl)-1H-pyrrolo[2,3-b]pyridin-3-yl]benzimidazole], for which the concentration for half-maximal inhibition (IC50) on FLT3-D835Y and on FLT3-ITD was 0.0001 to 1 µM each time.
With `N#Cc1cc(-c2cnc3[nH]cc(-c4ccc5ncn(C6CCCNC6)c5c4)c3c2)ccc1F` (centres unmarked) [P-208, 2-fluoro-5-[3-[3-(3-piperidyl)benzimidazol-5-yl]-1H-pyrrolo[2,3-b]pyridin-5-yl]benzonitrile], the IC50 against FLT3-D835Y and against FLT3-ITD was 0.0001 to 1 µM throughout.
With `CC(C)n1cnc2ccc(-c3c[nH]c4ncc(-c5cnn(CC(F)(F)F)c5)cc34)cc21` [P-268, 1-isopropyl-6-[5-[1-(2,2,2-trifluoroethyl)pyrazol-4-yl]-1H-pyrrolo[2,3-b]pyridin-3-yl]benzimidazole], the IC50 on FLT3-D835Y and at FLT3-ITD was 0.0001 to 1 µM each time.
